PMC6753678, “Fueling Open Innovation for Malaria Transmission-Blocking Drugs: Hundreds of Molecules Targeting Early Parasite Mosquito Stages” (Frontiers in Microbiology, 2019)
pIC50: −log10 of the molar value. Read-outs that look alike come from different tables or passages of the source.

What was measured:
[1] = system: 3D7-strain P. falciparum asexual parasites; assay: P. falciparum asexual growth inhibition assay (Pf GIA); assay type: cell-based, Plasmodium falciparum; details: dose response confirmation; read-out: Pf asexual growth inhibition assays IC50
Summary of the method: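 Read-out was lactate dehydrogenase activity measured by absorbance at 650 nm after freezing and thawing, against 50 μM chloroquine and DMSO controls. Before that, asexual 3D7 cultures (0.25% parasitemia, 2% hematocrit) had 72 h dose-response compound exposure at 37°C in 5% CO2/5% O2/90% N2; three independent replicates averaged.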

[2] = system: P. berghei ookinete development; details: for % inhibition, Replicate A / % inhibition, Replicate B: primary screen at 1 μM
HepG2 cells = assay: HepG2 cytotoxicity assay; details: for Pb ODA (this manuscript) HepG2 cytoxicity: HepG2 cytotoxicity listed with the Pb ODA data set (this manuscript); for pIC50: read-out: HepG2 cytotoxicity assay IC50, dose response confirmation
Summary of the method: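 Cells at 2,500 per well in MEM with 10% fetal bovine serum and 1% NEAA were exposed to test compounds for 48 h at 37°C, 5% CO2. Viability was read by fluorescence, with percent inhibition calculated against 50 μM doxorubicin (positive) and DMSO (negative) controls.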

[3] = read-out: Pb ODA (this manuscript) IC50, P. berghei ookinete development assay, this manuscript
[4] = read-out: Pb Ookinete development assay IC50, dose response confirmation
[5] = HepG2 values of the three screens unified
[6] = read-out: Pb ODA IC50, this manuscript
[7] = unified HepG2 value across the three screens

Compound	pIC50 [1]	Is compound selective in assay? Pb ODA active? [2]	% inhibition, Replicate A [2] [%]	% inhibition, Replicate B [2] [%]	pIC50 [2, 3]	pIC50 [2, 4]	Pb ODA (this manuscript) HepG2 cytoxicity (HepG2 cells) [µM]	pIC50 (HepG2 cells)	Is compound selective in assay? Pb ODA active? ([2]; 1: YES, 0: NO)	HepG2 cytoxicity (Pb ODA, this manuscript) (HepG2 cells) [µM]	Unified cytotox (HepG2 cells; [5]) [µM]	pIC50 [2, 6]	Unified cytotox (HepG2 cells; [7]) [µM]
Cc1nc(C)c(-c2ccc(Oc3ccc(Cl)c(Cl)c3)cc2)c(O)c1Cl [TCMDC-137396]	7.02	1 (key: 1: YES; 0: NO)	89.72	133.12	6.92	6.91	16.98	4.77	–	–	–	–	–
Cc1nc(C)c(-c2ccc(Oc3ccc(Cl)c(Cl)c3)cc2)c(O)c1Br [TCMDC-137397]	7.06	–	88.28	102.35	–	7.05	–	4.71	1 (1: YES)	19.50	19.50	–	–
Cc1[nH]c(C)c(-c2ccc(Oc3ccc(F)cc3)cc2)c(=O)c1Br [TCMDC-137402]	7.52	–	94.48	95.56	–	7.24	–	5.42	1 (1: YES)	3.80	3.80	7.25	–
Cc1nc(C)c(-c2ccc(Sc3ccc(Cl)cc3)cc2)c(O)c1Br [TCMDC-137404]	7.28	1 (key: 1: YES; 0: NO)	89.90	109.40	7.10	7.11	100.00	4.00	–	–	–	–	–
Cc1[nH]c(C)c(-c2ccc(Oc3ccc(C(F)(F)F)cc3)cc2)c(=O)c1Br [TCMDC-137406]	6.88	–	103.93	109.45	–	6.90	–	5.24	1 (1: YES)	5.75	5.75	6.89	–
Cc1[nH]c(C)c(-c2ccc(C(=O)c3ccc(Cl)cc3)cc2)c(=O)c1Br [TCMDC-137407]	7.25	1 (key: 1: YES; 0: NO)	83.43	91.19	7.10	7.11	44.67	4.35	–	–	–	–	–
Cc1[nH]c(C)c(-c2ccc(Oc3ccccc3)cc2)c(=O)c1Br [TCMDC-137410]	7.85	–	89.72	108.12	–	7.47	–	4.46	1 (1: YES)	34.67	34.67	7.47	–
Cc1[nH]c(C)c(-c2ccc(C(=O)c3ccc(Cl)cc3)cc2)c(=O)c1Cl [TCMDC-137413]	6.93	1 (key: 1: YES; 0: NO)	122.85	129.69	6.77	6.77	100.00	4.00	–	–	–	–	–
Cc1[nH]c(C)c(-c2ccc(S(=O)(=O)c3ccc(Cl)cc3)cc2)c(=O)c1Br [TCMDC-137414]	7.18	1 (key: 1: YES; 0: NO)	109.11	112.52	6.96	6.95	100.00	4.00	–	–	–	–	–
Cc1cc(=O)c(-c2cccc(Oc3ccc(Cl)cc3)c2)c(C)[nH]1 [TCMDC-137415]	6.40	–	51.13	85.04	–	6.15	–	4.45	1 (1: YES)	35.48	35.48	6.15	–
Cc1[nH]c(C)c(-c2ccc(-c3ccc(Cl)cc3)cc2)c(=O)c1Cl [TCMDC-137416]	6.42	1 (key: 1: YES; 0: NO)	59.25	97.22	5.61	5.61	57.54	4.24	–	–	–	–	–
Cc1[nH]c(C)c(C2CCC(c3ccc(Cl)cc3)CC2)c(=O)c1Cl (stereo not shown) [TCMDC-137423]	7.36	–	93.67	102.07	–	7.12	–	5.65	1 (1: YES)	–	–	7.12	2.24
Cc1nc(C)c(-c2ccc(Cl)cc2)c(O)c1I [TCMDC-137424]	6.62	1 (key: 1: YES; 0: NO)	40.29	60.84	5.74	5.74	100.00	4.00	–	–	–	–	–
CCCCCCCc1c(C)[nH]c2ccccc2c1=O [TCMDC-137425]	6.65	1 (key: 1: YES; 0: NO)	71.66	86.67	6.41	6.41	100.00	4.00	–	–	–	–	–
COc1ccc2c(=O)c(Br)c(C)[nH]c2c1 [TCMDC-137426]	6.07	1 (key: 1: YES; 0: NO)	81.77	82.46	6.32	6.32	100.00	4.00	–	–	–	–	–
Cc1[nH]c2ccccc2c(=O)c1Br [TCMDC-137427]	5.47	1 (key: 1: YES; 0: NO)	55.99	67.98	–	5.80	100.00	4.00	–	–	–	–	–
Cc1[nH]c(C)c(-c2ccc(C(F)(F)F)cc2)c(=O)c1Br [TCMDC-137429]	6.43	1 (key: 1: YES; 0: NO)	133.13	107.96	6.19	6.19	100.00	4.00	–	–	–	–	–
CCCCCCCCc1c(C)[nH]c(C)c(C#N)c1=O [TCMDC-137431]	6.10	–	93.99	59.83	–	6.34	–	4.46	1 (1: YES)	–	–	–	34.67
CCCCC1=CC2C(=O)C(C(=O)OC)=CN=C2C=C1OCc1ccccc1 (stereo not shown) [TCMDC-137492]	6.85	–	85.39	106.84	–	5.52	–	4.00	1 (1: YES)	–	–	5.52	100.00
